Measured values published in ChEMBL document CHEMBL4732174, “Discovery of 6-(7-Nitro-2,1,3-benzoxadiazol-4-ylthio)hexanol Derivatives as Glutathione Transferase Inhibitors with Favorable Selectivity and Tolerated Toxicity” (J Med Chem, 2021).

Legend:
[1] = biological target: T1, Glutathione S-transferase Mu 2 (Homo sapiens, UniProt P28161); assay: Inhibition of GSTM2-2 (unknown origin) using reduced GSH and CDNB as substrate incubated for 10 mins followed by substrate addition by microplate reader analysis
T1 sequence (P28161 whole entry): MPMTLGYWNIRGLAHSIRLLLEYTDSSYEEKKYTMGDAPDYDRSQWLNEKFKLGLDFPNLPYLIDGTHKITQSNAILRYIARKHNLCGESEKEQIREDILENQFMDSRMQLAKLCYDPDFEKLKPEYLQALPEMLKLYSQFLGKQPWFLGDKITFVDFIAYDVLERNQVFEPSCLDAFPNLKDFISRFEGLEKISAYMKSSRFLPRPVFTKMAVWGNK

A549 = assay: Antiproliferative activity against human A549 cells assessed as inhibition of cell proliferation incubated for 72 hrs by MTT assay; assay type: functional, cell-based; settings: A549, 72 h
[2] = Antiproliferative activity against […] B16 cells assessed as inhibition of cell proliferation incubated for 72 hrs by MTT assay; assay type: functional, cell-based; settings: B16, 72 h
143B [3] = assay: Antiproliferative activity against human 143B cells assessed as inhibition of cell proliferation incubated for 72 hrs by MTT assay; assay type: functional, cell-based
HOS = assay: Antiproliferative activity against human HOS cells assessed as inhibition of cell proliferation incubated for 72 hrs by MTT assay; assay type: functional, cell-based
143B [4] = assay: Antitumor activity against human 143B cells xenografted in BALB/c nude mouse assessed as tumor growth inhibition at 5 mg/kg, po administered once daily for 28 consecutive days relative to control; assay type: functional; settings: 672 h, time 28 day, read-out: TGI
[5] = biological target: Glutathione S-transferase P (Homo sapiens, UniProt P09211); assay: Inhibition of GSTP1-1 (unknown origin) using reduced GSH and CDNB as substrate incubated for 10 mins followed by substrate addition by microplate reader analysis
HUVEC = assay: Cytotoxicity against HUVEC assessed as reduction in cell viability incubated for 72 hrs by MTT assay; assay type: cell-based; settings: Homo sapiens
L02 = assay: Cytotoxicity against human L02 cells assessed as reduction in cell viability incubated for 72 hrs by MTT assay; assay type: cell-based; settings: L02, 72 h
[6] = Water solubility of the compound measured by UV-Visible spectral analysis; assay type: physicochemical; settings: buffer

Glutathione S-transferase P, sequence (P09211 whole entry): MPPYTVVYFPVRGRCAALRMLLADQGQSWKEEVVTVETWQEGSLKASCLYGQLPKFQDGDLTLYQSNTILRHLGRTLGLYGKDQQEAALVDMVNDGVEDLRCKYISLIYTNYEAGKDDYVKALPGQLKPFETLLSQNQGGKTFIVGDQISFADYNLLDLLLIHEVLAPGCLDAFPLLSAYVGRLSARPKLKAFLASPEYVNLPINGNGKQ

Compound	IC50 [1] [nM]	IC50 (A549) [nM]	IC50 [2] [nM]	IC50 (143B [3]) [nM]	IC50 (HOS) [nM]	inhibition in vivo at 5 mg/kg (143B [4]) [%]	IC50 [5] [nM]	IC50 (HUVEC) [nM]	IC50 (L02) [nM]	solubility [6]
O=[N+]([O-])c1ccc(SCCCCCCO)c2nonc12	20	2880	1350	4080	1240	38.6	–	–	–	–
O=C(O)CCC(=O)OCCCCCCSc1ccc([N+](=O)[O-])c2nonc12	160	3640	3650	2830	8740	–	530	740	1890	–
O=C(CCC(=O)OCCCCCCSc1ccc([N+](=O)[O-])c2nonc12)Nc1ccc(F)cc1	320	6300	2020	2500	2080	–	8570	1740	6460	–
Cc1ccccc1NC(=O)CCC(=O)OCCCCCCSc1ccc([N+](=O)[O-])c2nonc12	440	4200	6490	4660	4020	–	4100	1410	9490	–
O=C(CCC(=O)OCCCCCCSc1ccc([N+](=O)[O-])c2nonc12)Nc1ccccc1Cl	330	2750	2390	2430	–	–	15500	2950	5850	–
CN(C)CCNC(=O)CCC(=O)OCCCCCCSc1ccc([N+](=O)[O-])c2nonc12	160	5550	1140	2190	5020	–	540	2160	5980	Soluble
O=C(CCC(=O)OCCCCCCSc1ccc([N+](=O)[O-])c2nonc12)Nc1ccccc1F	350	2440	2120	3030	2350	–	9890	840	4270	–
COc1ccc(NC(=O)CCC(=O)OCCCCCCSc2ccc([N+](=O)[O-])c3nonc23)cc1	130	6480	2870	3060	1800	–	420	1590	8170	–
COc1ccc(NC(=O)CCC(=O)OCCCCCCSc2ccc([N+](=O)[O-])c3nonc23)cc1OC	360	3890	2350	2770	1390	–	6470	870	4100	–
O=C(CCC(=O)OCCCCCCSc1ccc([N+](=O)[O-])c2nonc12)Nc1ccccc1	700	1960	1260	3850	2120	–	10200	2490	6490	–
CCN(CC)CCCNC(=O)CCC(=O)OCCCCCCSc1ccc([N+](=O)[O-])c2nonc12	440	2570	2940	3440	9060	–	9550	2950	6770	Soluble
